Source: patent publication US7615564B2, “Isoquinoline derivatives having kinasae inhibitory activity and drugs containing the same” (Kirin Beer Kabushiki Kaisha, priority 2002, dated 2009)
pIC50: −log10 of the molar value. Marks after values point to notes of the source that are not given here.

How the values were obtained:
[1] = biological target: T1, Recombinant Rho kinase (fused protein composed of bovine Rho kinase catalytic region and glutathione S-transferase) (Bos taurus, UniProt Q28021); experiment: Rho kinase inhibitory activity (phosphorylation of S6 231-239 substrate with γ32P-ATP); type: biochemical; settings: concentration inhibiting substrate phosphorylation by 50%
T1 construct: fused protein composed of bovine Rho kinase catalytic region and glutathione S-transferase; glutathione S-transferase (GST); made in house; host or cells: insect cells infected with baculovirus
Protocol: This permits the substrate to be labeled with the radioisotope.
Thereafter, the substrate was adsorbed to a filter paper. ATP was washed away with a phosphoric acid solution, and the amount of the phosphorylated substrate was then measured with a liquid scintillation counter.

[2] = test system: Mouse-derived CCR2 overexpressing human-derived histiocyte lymphoma (U937/CCR2); experiment: Leukocyte migration inhibitory activity (MCP-1 induced migration, CHEMOTAXICELL); type: cell-based; settings: U-937, test compound concentration 10 μg/ml, MCP-1 ligand, migration 1 hr
Protocol: Mouse-derived CCR2 overexpressing human-derived histiocyte lymphoma (U937/CCR2), was suspended in a 0.1% BSA-containing RPMI 1640 medium, to which a test compound had been added (5×10^6/ml), and the suspension was incubated for 20 min. A chemical solution (500 μl) (0.1% BSA-containing RPMI 1640 medium DMSO 1%), to which an MCP-1 ligand (1 μM) and the test compound had been added, was added to a 24-well plate. CHEMOTAXICELL was put thereon, and 200 μl of the cell suspension was added to the top layer, followed by migration under a 5% CO2 atmosphere at 37° C. for one hr. The number of cells, which had migrated to the lower chamber, was counted with a particle count analyzer (CDA-500, SYSMEX CORPORATION), and the percentage migration inhibition was calculated by the following equation: Migration inhibition (%)=(1−number of migrated cells in the presence of test compound/number of migrated cells in the absence of test compound)×100

[3] = biological target: T2, Rho kinase (Bos taurus, UniProt Q28021); experiment: Ex vivo experiment: Rho kinase inhibition by serum of orally dosed SD rats; type: in vivo, rat; settings: hydrochloride 30 mg/kg oral, SD rats (N=4), serum diluted 8 times
T2 construct: fused protein composed of bovine Rho kinase catalytic region and glutathione S-transferase; glutathione S-transferase (GST); made in house; host or cells: insect cells infected with baculovirus
Protocol: Water or a solution of a hydrochloride salt of a test compound (30 mg/kg) in physiological saline was orally administered to SD rats (N=4). […] The serum was diluted 8 times with physiological saline and was added to Rho kinase, substrate, and labeled ATP according to the method described in Pharmacological Test Example 1, and the amount of the phosphorylated substrate was determined. Rho kinase inhibition was calculated according to the following equation: Inhibition (%)=(1−amount of substrate in the case of test compound administration/amount of substrate in the case of water administration)×100

[4] = test system: anti-GBM nephritis model using WKY rats; experiment: Proteinuria amelioration activity for anti-GBM nephritis model using WKY rats; type: in vivo, rat; settings: mean ± standard error, 6 rats; for Number of cells (ED-1 positive cells per glomerulus): hydrochloride 30 mg/kg oral twice a day, kidney four days after antibody
Protocol: An anti-GBM antibody produced by immunizing domestic rabbits with a rat-derived GBM fraction was caudointravenously administered to WKY male rats of 8 weeks old to induce nephritis. For 3 days from the time 24 hr after the administration of the antibody, a solution of each of the hydrochlorides prepared in Examples 45 and 46 in purified water was orally administered at a dose of 30 mg/kg twice a day. Three days after the administration of the antibody, twenty-four-hours urine was collected to determine the protein level of urine.
Four days after the administration of the antibody, the rats were sacrificed by exsanguination, and the kidney was then harvested and was fixed in 4% paraformaldehyde to prepare a specimen for staining. Next, the specimen thus obtained was immunostained using a mouse-anti-rat macrophage monoclonal antibody (ED-1). The number of ED-1 positive cells per glomerulus was counted.
Likewise, an anti-GBM antibody was caudointravenously administered to WKY male rats of 7 weeks old to induce nephritis. For 4 weeks from the time 24 hr after the administration of the antibody, a solution of the hydrochloride prepared in each of Examples 45 and 46 in purified water was orally administered at a dose of 30 mg/kg twice a day. Four weeks after the administration of the antibody, twenty-four-hours urine was collected to determine the protein level of urine.

[5] = test system: Spontaneously hypertensive male rats (SHR); experiment: Blood pressure depression activity in spontaneously hypertensive rats; type: in vivo, rat; settings: hydrochloride 30 mg/kg oral; systolic pressure 3 to 4 hr after administration; ± standard error, four SHRs
Protocol: Spontaneously hypertensive male rats (SHR, Charles River Japan, Inc.) of 15 weeks old were provided. A solution of a hydrochloride of a compound of Example 45 or 46 (30 mg/kg) in purified water was orally administered to the rats. The systolic pressure of SHR was measured immediately before the administration of the test compound and 3 to 4 hr after the administration of the test compound. The percentage blood pressure depression was calculated by the following equation: Blood pressure depression (%)={(blood pressure before administration of test compound−blood pressure after administration of test compound)/blood pressure before administration of test compound}×100
The blood pressure depression was expressed in terms of the percentage blood pressure depression and the standard error for four SHRs.

[6] = blood collection 4 hr after administration
[7] = hydrochloride 30 mg/kg oral twice a day for 4 weeks, 24-hr urine four weeks after antibody
[8] = hydrochloride 30 mg/kg oral twice a day for 3 days, 24-hr urine three days after antibody

T2 sequence (Q28021 6-553 limits assumed): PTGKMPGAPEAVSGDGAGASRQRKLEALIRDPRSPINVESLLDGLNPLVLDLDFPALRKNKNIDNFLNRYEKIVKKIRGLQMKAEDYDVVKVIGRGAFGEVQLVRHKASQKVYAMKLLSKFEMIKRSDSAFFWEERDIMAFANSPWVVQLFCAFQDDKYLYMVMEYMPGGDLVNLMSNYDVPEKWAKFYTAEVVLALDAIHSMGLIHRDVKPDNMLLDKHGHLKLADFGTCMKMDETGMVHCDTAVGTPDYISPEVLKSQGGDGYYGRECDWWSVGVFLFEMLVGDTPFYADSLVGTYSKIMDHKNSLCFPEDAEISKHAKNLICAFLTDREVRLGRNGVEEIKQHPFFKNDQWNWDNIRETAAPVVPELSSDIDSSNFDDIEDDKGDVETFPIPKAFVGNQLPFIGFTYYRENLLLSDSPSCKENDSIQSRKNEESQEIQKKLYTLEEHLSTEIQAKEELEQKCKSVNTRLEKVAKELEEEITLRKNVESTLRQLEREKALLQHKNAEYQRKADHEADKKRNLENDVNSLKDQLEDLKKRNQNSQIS
T1 sequence (Q28021 92-354 limits assumed): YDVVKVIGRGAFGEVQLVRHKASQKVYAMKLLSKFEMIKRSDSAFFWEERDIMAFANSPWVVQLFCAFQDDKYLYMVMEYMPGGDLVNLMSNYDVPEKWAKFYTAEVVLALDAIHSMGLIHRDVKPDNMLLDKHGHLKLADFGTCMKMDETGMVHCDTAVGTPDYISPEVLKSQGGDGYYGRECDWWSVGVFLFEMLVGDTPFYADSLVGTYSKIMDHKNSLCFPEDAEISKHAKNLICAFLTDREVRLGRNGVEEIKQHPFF

| Structure (SMILES) | pIC50 [1] | inhibition at 10 µg/mL [2] | Inhibition (%) ([3]; blood collected 3 hr after administration) | Inhibition (%) [3, 6] | Protein level of urine [4, 7] | Protein level of urine [4, 8] | Number of cells (ED-1 positive cells per glomerulus) [4] | Blood pressure depression (%) [5] |
| --- | --- | --- | --- | --- | --- | --- | --- | --- |
| Nc1cccc(CN2CCC(Nc3cccc4cnccc34)C2)c1 (centres unmarked) [Example 17, N5-[1-(3-Aminobenzyl)tetrahydro-1H-3-pyrrolyl]-5-isoquinolylamine] | 6.55 | 94% | 57% |  |  |  |  |  |
| Nc1cccc(CN2CC[C@H](Nc3cccc4cnccc34)C2)c1 [Example 45, (3S)-N5-[1-(3-Aminobenzyl)tetrahydro-1H-3-pyrrolyl]-5-isoquinolineamine] | 6.51 | 74% |  | 17* % | 779.4 ± 133.9 mg/kg, body weight | 91.2 ± 21.5 mg/kg, body weight | 2.20 ± 0.65 | 10.2 ± 3.1% |
| Nc1cccc(CN2CC[C@@H](Nc3cccc4cnccc34)C2)c1 [Example 46, (3R)-N5-[1-(3-Aminobenzyl)tetrahydro-1H-3-pyrrolyl]-5-isoquinolineamine] | 7.64 | 104% |  | 42* % | 327.6 ± 55.2 mg/kg, body weight | 73.6 ± 9.1 mg/kg, body weight | 1.38 ± 0.68 | 25.1 ± 4.4% |
